Reference: BindingDB's records for PubMed 7908055 (Case Western Reserve University, 1994)
pKi: −log10 of the molar value.

How the values were obtained:
[1] = biological target: T1, 5-hydroxytryptamine receptor 2C (Rattus norvegicus, UniProt P08909)
T1 sequence (P08909 whole entry): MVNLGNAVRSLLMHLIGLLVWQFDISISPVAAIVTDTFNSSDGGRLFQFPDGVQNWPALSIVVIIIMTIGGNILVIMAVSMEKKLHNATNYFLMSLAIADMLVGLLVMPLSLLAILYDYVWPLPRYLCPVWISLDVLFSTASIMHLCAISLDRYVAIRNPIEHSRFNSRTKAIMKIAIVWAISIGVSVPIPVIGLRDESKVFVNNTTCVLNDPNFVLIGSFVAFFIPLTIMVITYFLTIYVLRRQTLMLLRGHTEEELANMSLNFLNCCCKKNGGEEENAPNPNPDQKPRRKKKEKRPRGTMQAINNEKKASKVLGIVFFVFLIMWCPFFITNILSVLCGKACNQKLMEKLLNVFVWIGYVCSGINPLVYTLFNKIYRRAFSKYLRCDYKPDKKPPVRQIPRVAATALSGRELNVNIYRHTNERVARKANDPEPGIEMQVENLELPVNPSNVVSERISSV

[2] = biological target: D(2) dopamine receptor (Rattus norvegicus, UniProt P61169)
[3] = biological target: 5-hydroxytryptamine receptor 2A (Rattus norvegicus, UniProt P14842)
Sequence of 5-hydroxytryptamine receptor 2A (P14842 whole entry): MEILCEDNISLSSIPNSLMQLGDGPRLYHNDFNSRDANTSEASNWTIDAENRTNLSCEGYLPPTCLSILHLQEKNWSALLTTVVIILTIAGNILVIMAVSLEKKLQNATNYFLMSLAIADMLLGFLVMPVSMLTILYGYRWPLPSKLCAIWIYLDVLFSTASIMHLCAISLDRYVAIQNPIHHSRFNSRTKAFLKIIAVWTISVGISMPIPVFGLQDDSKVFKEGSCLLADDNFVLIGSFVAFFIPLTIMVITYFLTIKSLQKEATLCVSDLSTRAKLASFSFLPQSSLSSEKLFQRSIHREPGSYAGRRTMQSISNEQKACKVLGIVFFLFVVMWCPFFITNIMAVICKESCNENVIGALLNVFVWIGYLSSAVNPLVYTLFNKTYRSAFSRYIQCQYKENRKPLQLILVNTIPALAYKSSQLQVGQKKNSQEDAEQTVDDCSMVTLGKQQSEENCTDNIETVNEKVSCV

Sequence of D(2) dopamine receptor (P61169 whole entry): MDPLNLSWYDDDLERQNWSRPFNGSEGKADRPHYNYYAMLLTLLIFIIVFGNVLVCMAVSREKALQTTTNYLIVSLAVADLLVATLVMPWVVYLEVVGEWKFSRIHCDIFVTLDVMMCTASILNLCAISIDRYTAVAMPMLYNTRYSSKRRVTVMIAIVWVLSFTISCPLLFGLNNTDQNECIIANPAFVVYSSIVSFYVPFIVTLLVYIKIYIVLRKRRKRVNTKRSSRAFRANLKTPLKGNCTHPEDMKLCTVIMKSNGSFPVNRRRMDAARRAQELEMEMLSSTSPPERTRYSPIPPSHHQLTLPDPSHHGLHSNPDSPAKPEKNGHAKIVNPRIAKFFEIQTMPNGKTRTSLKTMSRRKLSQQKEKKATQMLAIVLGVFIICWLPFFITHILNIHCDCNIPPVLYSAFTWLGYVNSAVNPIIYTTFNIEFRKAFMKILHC

| SMILES | pKi [1] | pKi [2] | pKi [3] |
| --- | --- | --- | --- |
| CN1CCN(C2=Nc3cc(F)ccc3Cc3ccccc32)CC1 | 7.70 | 6.50 | 8.20 |
| CN1CCN(C2=Nc3ccccc3Cc3ccccc32)CC1 |  | 6.30 | 7.90 |
| CN(C)CC/C=C1\c2ccccc2Sc2ccc(Cl)cc21 |  |  | 9.41 |
| CN1CCCCC1CCN1c2ccccc2Sc2ccc([S+](C)[O-])cc21 (stereo unspecified) |  | 8.10 |  |
| CCNC(=O)N1CCN(CCCC(c2ccc(F)cc2)c2ccc(F)cc2)CC1 | 5.90 | 6.30 | 7.90 |
| O=c1[nH]c2ccccc2n1C1CCN(CCCC(c2ccc(F)cc2)c2ccc(F)cc2)CC1 [1-(1-(4,4-bis(4-fluorophenyl)butyl)piperidin-4-yl)-1H-benzo[d]imidazol-2(3H)-one] | < 5.00 |  |  |
| CN1CCN(CCCN2c3ccccc3Sc3ccc(Cl)cc32)CC1 [2-chloro-10-[3-(4-methylpiperazin-1-yl)propyl]phenothiazine;ethane-1,2-disulfonic acid] | 7.10 |  | 8.20 |
| CN1CCN(C2=Nc3ccccc3Sc3ccc(Cl)cc32)CC1 [2-chloro-11-(4-methylpiperazin-1-yl)dibenzo[b,f][1,4]thiazepine] |  |  | 9.10 |
| CCN1CCC[C@H]1CNC(=O)c1c(O)c(Cl)cc(Cl)c1OC [3,5-Dichloro-N-(1-ethyl-pyrrolidin-2-ylmethyl)-2-hydroxy-6-methoxy-benzamide (raclopride)] | 5.30 |  | 5.30 |
| OCCN1CCN(CCCN2c3ccccc3Sc3ccc(Cl)cc32)CC1 [4-[3-(2-chlorophenothiazin-10-yl)propyl]-1-piperazineethanol] | 7.30 | 9.20 | 8.60 |
| CC1CN(CCCn2c3ccccc3c3ccccc32)CC(C)N1 (stereo unspecified) [9-[3-(3,5-dimethylpiperazin-1-yl)propyl]-9H-carbazole] |  |  | 5.30 |
| CN1CCN(C2=Nc3ccccc3Oc3ccc(Cl)cc32)CC1 [13-chloro-10-(4-methylpiperazin-1-yl)-2-oxa-9-azatricyclo[9.4.0.0^{3,8}]pentadeca-1(11),3,5,7,9,12,14-heptaene] |  | 8.10 |  |
| CC1CCN(CCCC(=O)c2ccc(F)cc2)CC1 [CAS_3575-80-2] | 5.90 | 6.70 |  |
| CC(=O)c1ccc2c(c1)N(CCCN1CCN(CCO)CC1)c1ccccc1S2 [CAS_5714-00-1] | 6.00 |  |  |
| CN1CCN(C2=Cc3cc(Cl)ccc3C(=CC#N)c3ccccc32)CC1 [CAS_79781-95-6] | 7.60 | 7.40 | 9.20 |
| CN1CCN(CC/C=C2/c3ccccc3Sc3ccc(S(=O)(=O)N(C)C)cc32)CC1 [MLS000028463] | 5.80 | 9.20 |  |
| CCc1c(C)[nH]c2c1C(=O)C(CN1CCOCC1)CC2 (stereo unspecified) [Moban] |  | 7.80 | 6.30 |
| CN1CCN(C2=Nc3cscc3C(=CC#N)c3cscc32)CC1 [NSC_3086153] | 7.20 | 5.80 |  |
| OC1(c2ccc(Cl)c(C(F)(F)F)c2)CCN(CCCC(c2ccc(F)cc2)c2ccc(F)cc2)CC1 [Penfluridol] |  |  | 7.20 |
| O=C1CC2(CCCC2)CC(=O)N1CCCCN1CCN(c2nsc3ccccc23)CC1 [TIOSPERONE] | 8.00 | 9.30 |  |
